Measured values as given in US8119614B2, “Substitution derivatives of N6-benzyladenosine, methods of their preparation, their use for preparation of drugs, cosmetic preparations and growth regulators, pharmaceutical preparations, cosmetic preparations and growth regulators containing these compounds” (Ustav Experimentalni Botaniky Akademie Ved Ceske Republiky, priority 2002, dated 2012).
Peptide text beside a SMILES is read from it. * marks the point of attachment. Cbz = O=C(OCc1ccccc1)*; CH2F = FC*

System: HL-60 cells
Assay: HL-60 cell proliferation and viability (FDA/PI staining)
Type: cell-based, human
Details: 50 μM Z-VAD-FMK with 20 μM 2OH3MeOBAPR, 72 h (FIG. 10)
Protocol: Cell culture. A suspension of human promyelocytic HL-60 cells was cultured in RPMI-1640 medium supplemented with a 10% calf foetal serum and antibiotics in 5% CO2 atmosphere at 37° C. Cells were maintained at density from 1×10^5 to 6×10^5 cells per ml. HL-60 cells were obtained from ECACC.
Cell viability assay. Double staining with fluorescein diacetate (FDA) and propidium iodide (PI) for discrimination of dead and living cells was used. Cells were stained in growing medium with PI at a concentration 10 μg/ml 5 min later FDA was added at a concentration 1 μg/ml. The percentage of dead cells (i.e., red stained cells) was evaluated using fluorescence microscopy (Mlejnek and Kolman 1999).

How did the “effect of caspase inhibitor on 2OH3MeOBAPR induced apoptosis and cell death” value turn out when `COC(=O)C[C@H](NC(=O)[C@H](C)NC(=O)[C@@H](NC(=O)OCc1ccccc1)C(C)C)C(=O)CF` [Z-VAD-FMK, reference compound] (Cbz-Val-Ala-Asp(OMe)-CH2F) was run?
Its value is “suppress morphological and biochemical characteristics of apoptosis, however it does not inhibit cell death itself”.
